This is an account of results in US20130065792A1, “INDUCIBLE EXPRESSION OF SGLT5, METHODS AND KITS USING THE SAME” (BOEHRINGER INGELHEIM INTERNATIONAL GMBH, priority 2011, published 2013).

Assay type in all cases: cell-based
Assay [1] deals with T1, SGLT5 (Homo sapiens, UniProt A0PJK1).
T1 construct: expressed in transfected cells; host or cells: T-Rex 293 cells (Invitrogen), stably transfected with pT-Rex-Dest30-hSGLT5; expression induced with tetracycline; deposited clone DSM ACC3096
T1 sequence (A0PJK1 1-596): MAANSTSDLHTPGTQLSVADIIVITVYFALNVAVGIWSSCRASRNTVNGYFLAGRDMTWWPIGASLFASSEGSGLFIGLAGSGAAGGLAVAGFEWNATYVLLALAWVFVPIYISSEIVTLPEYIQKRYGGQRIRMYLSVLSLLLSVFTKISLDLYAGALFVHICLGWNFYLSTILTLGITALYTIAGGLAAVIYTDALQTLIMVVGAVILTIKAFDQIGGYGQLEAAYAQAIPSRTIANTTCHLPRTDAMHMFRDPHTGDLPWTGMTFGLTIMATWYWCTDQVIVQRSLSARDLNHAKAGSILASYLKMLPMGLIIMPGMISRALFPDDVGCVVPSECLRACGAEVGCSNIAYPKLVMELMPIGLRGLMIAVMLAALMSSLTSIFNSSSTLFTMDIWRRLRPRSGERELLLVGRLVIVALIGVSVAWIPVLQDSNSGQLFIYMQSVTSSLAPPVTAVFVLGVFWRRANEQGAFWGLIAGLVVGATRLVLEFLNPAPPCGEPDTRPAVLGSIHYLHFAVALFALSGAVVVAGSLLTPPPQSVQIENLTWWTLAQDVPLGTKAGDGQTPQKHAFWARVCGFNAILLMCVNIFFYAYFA
In words: Time dependent specific uptake of [14C]-monosaccharides by T-Rex 293-hSGLT5 cells (FIG. 3). The conditions noted are these: 1 mM monosaccharide, 5-60 min, tetracycline induced T-Rex 293-hSGLT5 cells. The method, then:
[^14C]-saccharide uptake experiments: 30000 cells per well were seeded in white poly-D-lysine-coated 96-well plates and incubated over night. The expression of hSGLT5 was induced 24 h before the start of uptake experiments by the addition of 1 μg/ml tetracycline to the cells. For the assay, cells were washed twice with 250 μl pre-treatment buffer [140 mM cholinchloride in basal buffer (10 mM HEPES; 5.4 mM KCl; 2.8 mM CaCl2*2 H2O; 1.2 mM MgSO4*7 H2O; 0.1% BSA, pH 7.4) and incubated in 200 μl pre-treatment buffer for 25 min at 37° C. Pre-treatment buffer was removed and 200 μl uptake buffer was added to the cells (140 mM NaCl in basal buffer containing 1 mM cold monosaccharide [either glucose, fructose, mannose, galactose or alphamethyl glucopyranoside (AMG), respectively]+0,6 μCi [^14C]-labelled monosaccharide [either glucose, fructose, mannose, galactose or alpha-methyl glucopyranoside (AMG), respectively] (Hartmann Analytics, Mannheim, Germany) and 10 μM Cytochalasin B. After incubation for 5, 10, 30 and 60 minutes at 37° C., the cells were washed three times with 300 μl PBS (Cambrex, Verviers, Belgium) and then lysed in 0.1 N NaOH with intermittent shaking for 5 min. The lysate was mixed with 200 μl MikroScint 40 Scintillator, shaken for 15 min and counted for radioactivity in the TopCount NXT (Canberra Packard, Schwadorf, Austria). Specific sugar uptake was determined by subtracting non-specific uptake of each sugar (in the presence of choline chloride) from total uptake of the same sugar (in the presence of sodium chloride).
Furthermore, a protocol was established to measure the specific uptake of monosaccharides e.g. mannose, fructose, glucose, AMG and galactose by hSGLT5, It could be shown that the transporter takes up mannose and fructose with high affinity and hardly transports glucose, AMG and galactose (FIG. 3). […] Specific uptake was calculated by subtracting the respective monosaccharide uptake in the presence of choline chloride from the total uptake of the same monosaccharide in the presence of sodium chloride.

Assay [2] concerns the target T1, SGLT5. In words: FLIPR membrane potential assay in HEK/293 cells constitutively expressing SGLT5 (Reference Example). The following applies: constitutive expression; results later called unreliable and irreproducible. As for the experimental part: FLIPR assay: Changes in membrane potential can be assayed using the FLIPR TETRA Assay (Molecular Devices). In this method cells are loaded with a fluorescent dye, which emits light of a different wavelength dependent on the membrane potential. This can be recorded in suitable cell culturing plates and monitored over time in the presence/absence of a test substance.
10.000 to 30.000 cells were seeded in a 384 well plate (black, lysine coated with transparent bottom, Becton Dickinson) and were incubated over night at 37° C. and 5% CO2. The next day they were washed twice with 50 μl assay buffer (140 mM NaCl; 1.26 mM CaCl2; 0.49 mM MgCl2*6 H2O; 0.41 mM MgSO4*7 H2O; 5.33 mM KCl; 0.44 mM KH2PO4−pH =7.4). […]
After starting the measurement ten sample points were assayed at intervals of 3 seconds. Thereafter […] of the dissolved test substances (e.g. monosaccharide and/or KCl) were added and 30 measurements were recorded in 3-second intervals, thereafter 16 measurements were recorded in 15-second intervals. […]
Cells showing strong expression by PCR were subcloned and propagated. […] According to the fluorescence signal induced by KCl a number of 30,000 cells/well was determined to provide the highest fluorescence signal. […] Thereafter cells were exposed to glucose, galactose, fructose, AMG or mannose in different concentrations and changes in fluorescence were recorded as described in Example 1. […]

Assay [3] has as its target T1, SGLT5. In words: Uptake of C14-labeled galactose in HEK/293 cells constitutively expressing SGLT5 (Reference Example). The conditions noted are these: galactose 0.1 mM; constitutive expression; called unreliable. As for the experimental part:
[^14C]-saccharide uptake experiments: 30000 cells per well were seeded in white poly-D-lysine-coated 96-well plates and incubated over night. The expression of hSGLT5 was induced 24 h before the start of uptake experiments by the addition of 1 μg/ml tetracycline to the cells. For the assay, cells were washed twice with 250 μl pre-treatment buffer [140 mM cholinchloride in basal buffer (10 mM HEPES; 5.4 mM KCl; 2.8 mM CaCl2*2 H2O; 1.2 mM MgSO4*7 H2O; 0.1% BSA, pH 7.4) and incubated in 200 μl pre-treatment buffer for 25 min at 37° C. […] The lysate was mixed with 200 μl MikroScint 40 Scintillator, shaken for 15 min and counted for radioactivity in the TopCount NXT (Canberra Packard, Schwadorf, Austria). Specific sugar uptake was determined by subtracting non-specific uptake of each sugar (in the presence of choline chloride) from total uptake of the same sugar (in the presence of sodium chloride). […]

The target of assay [4] is T1, SGLT5. In words: Competitive assay to inhibit C14-labeled AMG uptake into transfected HEK cells (Reference Example). The conditions noted are these: constitutive expression; called unreliable. The method, then: SGLT5 was cloned as described in Example 1. However, instead of using the inducible pT-Rex-Dest30 plasmid the sequence was inserted into the expression plasmid pcDNA3.1/V5-His for constitutive expression. Using lipofection HEK/293 cells (ATCC) were stably transfected. The expression plasmid contained resistance to geneticin as a selection marker. The cells were cultivated in DMEM with 10% FCS and […] geneticin for selecting transfected cells. Expression was tested by RT-PCR.
Furthermore, cells were tested for uptake of C^14-labeled galactose in an assay as described in Example 1. […] In addition, a competitive assay to inhibit C^14-labeled AMG uptake into the transfected HEK cells was performed.

Take `O=C[C@H](O)[C@@H](O)[C@@H](O)[C@H](O)CO` [galactose]: the “specific uptake / affinity for hSGLT5 (in words)” value on SGLT5 [1] is given as “very low affinity”. For the same molecule, the “signal for depolarisation (FLIPR, in words)” value at SGLT5 [2] is given as “strongest signal for depolarisation”. In addition, on SGLT5 [3], the “uptake signal relative to the negative control (absolute cpm)” value is “approximately 3 fold”. Besides, at SGLT5 [4], the “inhibitory effect on C14-labeled AMG uptake (in words)” value is listed as “highest inhibitory effect”.
